Here are results for 104 compounds from ChEMBL document CHEMBL1212713, “Molecular docking and ligand specificity in fragment-based inhibitor discovery” (Nat Chem Biol, 2009).

Calls of active or inactive are those of the source.

The nature of the first assay: Inhibition of beta lactamase CTX-M assessed as hydrolysis of beta lactam by spectrometry analysis.
`Cn1cc(C(=O)Nc2cccc(-c3nn[nH]n3)c2)c2ccccc21`: the inhibition constant Ki is 10 µM.

Turning to `O=C(Nc1cccc(-c2nn[nH]n2)c1)[C@H](Sc1ccccc1)c1ccccc1`, the Ki was 12 µM.

Turning to `O=C1C=C(S(=O)(=O)O)c2ccccc2C1=O`, the Ki worked out at 1000 µM.

As for `Nc1sc2c(c1-c1nn[nH]n1)CCCC2`, the Ki amounted to 3000 µM.

With `O=C(O)CN1C(=O)O[C@@H](c2ccccc2)C1=O`, the Ki came out at 700 µM.

Regarding `c1ccc(COc2cccc(-c3nn[nH]n3)c2)cc1`, the inhibitory constant (Ki) is 1000 µM.

Take `O=C1C[C@H](S(=O)(=O)O)c2ccccc2C1=O`: the Ki worked out at 700 µM.

Another assay is described as follows: Inhibition of beta lactamase CTX-M assessed as hydrolysis of beta lactam up to 5 mM by spectrometry analysis.
`O=C(O)[C@@H]1C[C@@H](C(=O)O)N1`: the inhibition entry was “inactive”.

For the compound `C[C@@H]1C[C@H](C)CN(S(=O)(=O)c2cccc(C(=O)O)c2)C1`, the inhibition result is “inactive”.

On to `O=C(O)CN1C(=O)c2ccc(F)cc2C1=O`, for which the inhibition result was “inactive”.

`C[C@H]1CCc2n[nH]c(C(=O)O)c2C1`: the inhibition entry is “inactive”.

As to `Cc1cc(C(=O)NCc2oc(C(C)(C)C)cc2C(=O)O)c(C)o1`, the inhibition result was “inactive”.

As to `C[C@H](NC(=O)c1ccccc1Cl)C(=O)O`, the inhibition result is “inactive”.

As to `Cc1oncc1C(=O)O`, the inhibition entry was “inactive”.

As to `Cc1cc(C)c2nc(CC(=O)O)[nH]c2c1`, the inhibition entry was “inactive”.

Consider `O=C(O)[C@H]1[C@H](C(=O)NCCO)[C@H]2C=C[C@H]1C2`, for which the inhibition result was “inactive”.

In the case of `O=C(O)/C=C/c1ccc(O)cc1`, the inhibition entry is “inactive”.

Regarding `CC(=O)c1c(O)c(C(=O)O)c(C)oc1=O`, the inhibition result was “inactive”.

For `N#Cc1ccsc1NC(=O)c1ccccn1`, the inhibition entry was “inactive”.

With `CC(=O)Nc1ccc(Sc2ccccc2C(=O)O)c(C(=O)O)c1`, the inhibition entry was “inactive”.

`CS(=O)(=O)c1cccc(C(=O)O)c1`: the inhibition result was “inactive”.

On to `O=C(O)[C@H]1CC(=O)N(C2CCCC2)C1`, for which the inhibition entry was “inactive”.

`Cc1cc(C(=O)Nc2ccc(CC(=O)O)cc2)c(C)o1`: the inhibition result is “inactive”.

`Cc1ccc(NC(=O)/C=C/C(=O)O)cc1`: the inhibition entry is “inactive”.

`O=C(O)c1ccc(Cl)c(N2C(=O)c3ccccc3C2=O)c1`: the inhibition result is “inactive”.

Regarding `CCC(=O)Nc1ccccc1C(=O)C(=O)O`, the inhibition result is “inactive”.

For `Cc1ccc(-n2nc(C(N)=O)c(=O)cc2C)cc1`, the inhibition entry was “inactive”.

In the case of `NS(=O)(=O)c1cccc(C(=O)O)c1`, the inhibition entry is “inactive”.

Take `Cc1ccc(NC(=O)[C@H]2CCC(=O)N2)c(C)c1`: the inhibition result was “inactive”.

As to `Cc1ccc(N[C@H](CC(=O)c2ccccc2)C(=O)O)cc1C`, the inhibition result was “inactive”.

As for `O=C(O)c1ccc(=O)oc1`, the inhibition entry is “inactive”.

For the compound `O=C(O)c1cccc(OCc2cn3ccccc3n2)c1`, the inhibition result was “inactive”.

For `O=C(O)c1ccc(=O)[nH]n1`, the inhibition entry was “inactive”.

Regarding `CC(=O)Nc1sccc1C(=O)O`, the inhibition entry was “inactive”.

As to `O=C(O)Cc1ccc(C(=O)c2cccs2)s1`, the inhibition result is “inactive”.

Regarding `O=C(O)c1cnc(O)cc1O`, the inhibition entry is “inactive”.

With `C[C@H]1Cc2ccccc2N1C(=O)CSc1nnnn1C1CCCC1`, the inhibition result is “inactive”.

On to `CCOC(=O)c1c(C(=O)O)[nH]c(C(=O)OCc2ccccc2)c1C`, for which the inhibition result was “inactive”.

With `O=C1C[C@H](C(=O)O)c2ccccc21`, the inhibition result is “inactive”.

Consider `Cc1onc(C(N)=O)c1C(=O)Nc1nccs1`, for which the inhibition result was “inactive”.

For `CCCOc1ccc([C@H](CC(=O)O)NC(=O)c2ccc(F)cc2)cc1`, the inhibition result was “inactive”.

In the case of `C=C(CC)N/N=C1\NC(=O)[C@H](CC(=O)O)S1`, the inhibition result was “inactive”.

Consider `CC(=O)NCC(=O)O`, for which the inhibition entry was “inactive”.

`O=C(O)c1c[nH]c(=O)[nH]c1=O`: the inhibition entry was “inactive”.

For the compound `O=C(O)c1cccc(S(=O)(=O)Nc2ccccc2O)c1`, the inhibition result was “inactive”.

On to `O=C(O)Cc1ccccc1O`, for which the inhibition entry is “inactive”.

As for `O=C(O)c1cccc(N2C(=O)c3ccc(Br)cc3C2=O)c1`, the inhibition entry was “inactive”.

Turning to `O=C(O)c1cccc(-c2nc3ccccc3[nH]2)c1`, the inhibition result is “inactive”.

As to `O=C(Nc1nncs1)c1ccccc1F`, the inhibition entry is “inactive”.

As to `O=C(O)c1cccc(S(=O)(=O)Nc2ccccn2)c1`, the inhibition entry is “inactive”.

`C[C@@H](Oc1cc(O)c2c(=O)cc(-c3ccccc3)oc2c1)C(=O)O`: the inhibition result is “inactive”.

Regarding `O=C(O)c1cc(=O)cc2n1CCNC2=O`, the inhibition entry was “inactive”.

In the case of `O=C(O)CNC(=O)c1cccc2ccccc12`, the inhibition result is “inactive”.

For the compound `O=C(O)C[C@@H]1NC(=O)[C@H](Cc2ccccc2)NC1=O`, the inhibition entry was “inactive”.

In the case of `O=C(O)c1cccc(COc2ccc(CO)cc2)c1`, the inhibition entry was “inactive”.

Take `O=C(O)CC(=O)Nc1ccccc1`: the inhibition result is “inactive”.

`O=C(O)C[C@H](C(=O)NCc1ccccc1)c1ccccc1`: the inhibition entry is “inactive”.

As for `Cc1ccccc1C(=O)N[C@@H](C)C(=O)O`, the inhibition result is “inactive”.

With `CC(C)(C)c1ccc([C@@H](CC(=O)O)NC(=O)c2ccccc2F)cc1`, the inhibition result was “inactive”.

With `C[C@@H](NC(=O)CNC(=O)CN)C(=O)O`, the inhibition entry is “inactive”.

As for `O=C(O)c1n[nH]c2c1CCC2`, the inhibition entry is “inactive”.

Regarding `CC(=O)C1=C(O)C(O)N([C@@H](C)C(=O)O)[C@H]1c1ccccc1` (some centres not stated), the inhibition result was “inactive”.

For `O=C(Nc1nncs1)c1ccccc1O`, the inhibition result is “inactive”.

For `Cc1oc(S(=O)(=O)N2CCCCC2)cc1C(=O)O`, the inhibition result is “inactive”.

For `O=C(O)c1cc(=O)c2cc(F)ccc2o1`, the inhibition entry is “inactive”.

For the compound `C=C1C(=O)OC=C1C(=O)O`, the inhibition entry is “inactive”.

In the case of `O=C(O)C[C@@H](NC(=O)c1ccccc1F)c1ccc2c(c1)OCO2`, the inhibition entry is “inactive”.

As for `O=C(O)[C@@H](Cc1ccco1)P(=O)(O)CN1CCOCC1`, the inhibition result was “inactive”.

On to `O=C(O)c1ccccc1C(=O)c1ccc2c(c1)CCC2`, for which the inhibition entry was “inactive”.

Turning to `O=C1C=CC(=O)[C@@H]2CC=C[C@@H](C(=O)O)[C@H]12`, the inhibition entry was “inactive”.

As to `O=C(O)[C@@H]1C(=O)NC[C@H]1c1ccccc1`, the inhibition entry was “inactive”.

With `O=C(O)Cn1cnc2ccccc21`, the inhibition entry was “inactive”.

As for `O=C(O)C1CC(O)CN1` (configuration not stated), the inhibition entry was “inactive”.

`O=C(O)C[C@@H]1C(=O)NC(=S)N1c1ccccc1`: the inhibition result is “inactive”.

Turning to `Cc1[nH]c(C(=O)O)c(C)c1[C@H](C)O`, the inhibition result is “inactive”.

Regarding `Cc1cc(C)cc(N2C[C@@H](C(=O)O)CC2=O)c1`, the inhibition entry is “inactive”.

Take `O=C(O)c1ccnc([C@@H]2CCCCC2=O)c1`: the inhibition entry was “inactive”.

`O=C(O)c1ccccc1N[C@H](C(=O)O)c1ccccc1`: the inhibition entry was “inactive”.

As to `O=C(O)[C@@H]1C[C@H]1C(=O)N1CCc2ccccc21`, the inhibition result is “inactive”.

Consider `CC(=O)Nc1nc(C(=O)O)cs1`, for which the inhibition result was “inactive”.

Regarding `Cc1cc(O)nc(O)c1C(=O)O`, the inhibition entry was “inactive”.

With `O=C(O)C[C@H](NO)c1ccccc1`, the inhibition entry was “inactive”.

`O=C(O)c1sc(C(=O)O)c(-c2ccco2)c1-c1ccco1`: the inhibition result is “inactive”.

Take `O=C(O)[C@H]1C[C@H](O)CN1Cc1ccccc1`: the inhibition result is “inactive”.

Take `CC(=O)Nc1ccc(OS(=O)(=O)c2cccc(C(=O)O)c2)cc1`: the inhibition entry is “inactive”.

As for `O=C(O)c1cn(S(=O)(=O)c2ccccc2)c2ccccc12`, the inhibition result was “inactive”.

Regarding `Cc1ccc(NC(=O)CSc2nnc(CCC(=O)O)c(=O)[nH]2)cc1`, the inhibition entry is “inactive”.

`O=CNc1ccccc1C(=O)O`: the inhibition result is “inactive”.

As for `O=C1C=CC(=O)C(c2cccc(C(=O)O)c2)=C1`, the inhibition entry is “inactive”.

As for `O=C(CC1=NO[C@H](c2ccccc2O)N1)N1CCCC1`, the inhibition result was “inactive”.

For `Cc1cc(C)cc(NC(=O)N(CCC(=O)O)Cc2ccccc2)c1`, the inhibition result was “inactive”.

`Cc1ccc(C(=O)NCC(=O)O)s1`: the inhibition result was “inactive”.

Regarding `O=C(O)Cc1cc(=O)[nH]c2ccccc12`, the inhibition result was “inactive”.

Take `Cc1ccoc1C(=O)NCc1occc1C(=O)O`: the inhibition result was “inactive”.

Take `O=C1NC(=O)[C@H](Nc2ccccc2C(=O)O)S1`: the inhibition result is “inactive”.

For `O=C1C=C(O)[C@@H](C(=O)O)[C@H](c2ccccc2)C1`, the inhibition entry is “inactive”.

`COc1ccc(C(=O)O)cc1S(=O)(=O)N1CCCCCC1`: the inhibition entry is “inactive”.

Regarding `O=C(O)c1ccc(Cl)c(N2CCCC2=O)c1`, the inhibition entry was “inactive”.

On to `O=C(O)[C@@H]1CNC(Cc2ccc(Cl)cc2)=N1`, for which the inhibition entry was “inactive”.

As to `O=C(O)CSc1nc(O)cc(O)n1`, the inhibition result was “inactive”.

In the case of `O=C(O)/C=C/c1ccc(O)c(O)c1`, the inhibition entry is “inactive”.

A short description of a further assay: Inhibition of beta lactamase AmpC assessed as hydrolysis of beta lactam by spectrometry analysis.
Regarding `O=C(O)CN1C(=O)O[C@@H](c2ccccc2)C1=O`, the Ki was 3500 µM.

The nature of the next assay: Inhibition of beta lactamase CTX-M assessed as hydrolysis of beta lactam at 250 uM by spectrometry analysis.
Consider `Cn1cc(C(=O)Nc2cccc(-c3nn[nH]n3)c2)c2ccccc21`, for which the inhibition result was “Active”.

Regarding `Cc1nc2cc(C(=O)Nc3cccc(-c4nn[nH]n4)c3)ccc2n1-c1ccccc1`, the inhibition entry was “Active”.

Turning to `O=C(Nc1cccc(-c2nn[nH]n2)c1)[C@H](Sc1ccccc1)c1ccccc1`, the inhibition result is “Active”.

As for `O=C(Nc1cccc(-c2nn[nH]n2)c1)c1csc2c1CCCC2`, the inhibition result was “Active”.

Regarding `CC(=O)Nc1cc(NC(C)=O)cc(C(=O)Nc2cccc(-c3nn[nH]n3)c2)c1`, the inhibition result is “Active”.
